According to patent US6458760B1, “Method for treating tissue damaged from ischemia” (Henry Ford Health System, priority 1998, dated 2002):
Residues, ends and D or L forms follow the SMILES beside them. *: point of attachment. Cbz = O=C(OCc1ccccc1)*; CHN2 = [N-]=[N+]=C*; Bn = c1ccc(C*)cc1

Legend:
[1] = system: Wistar rats with MCA occlusion; assay: Stroke model, 3 h MCA occlusion, infarct volume at 7 days; format: in vivo, rat
Procedure: After anesthesia had been induced in the rat, a catheter was inserted into the femoral vein and tunneled subcutaneously in the posterior neck region. Body temperature was maintained at a constant temperature of 37° C. during surgical procedures. The animals underwent 2 hours of MCA occlusion, and then reperfusion when the suture was withdrawn, and immediately thereafter, the drug was infused for four hours. The animals were killed after a 7-day reperfusion, and the brains were formalin fixed and sliced 6-μm thick into seven coronal sections A-G, and mounted on coated slides. After staining with hematoxylin and eosin, the stroke volume was measured using an image analysis program. The stroke area and the contralateral hemispheric area were calculated by tracing the areas on the computer screen, and the volumes were determined by multiplying the appropriate area by the section interval thickness. The stroke volume is expressed as the percentage of lesion size to the volume of contralateral hemisphere. […]
CP-1 dissolved in 1% DMSO and isotonic saline was given intravenously to Wistar rats (15 μl/min) at a concentration of 50 μM for four hours beginning at the end of three hours of MCA occlusion, in accordance with the protocol described hereinabove. […] All animals which survived 7 days were sacrificed and the infarct volume was measured 7 days after the MCA occlusion. […]

[2] = system: Calpain; assay: Calpain inactivation rate, fluorimetric progress curves; format: biochemical; details: second order inactivation rate constant corrected for substrate; substrate Suc-Leu-Tyr-AMC; pH 7.5, 37° C.
Procedure: (§1) (“Tian, et al.”) the contents of which are incorporated by reference. More specifically, the value of kobs is given by the slope of a plot of ln [P]∞−[p]t versus t (time). The apparent second-order rate contact for inactivation, k2app was calculated as kobs/[I]. The inactivation-rates (kobs) in the presence of substrate and for different inhibitor concentrations for calpain, cathepsin B and cathepsin L are determined according to the method of Tian, et al. However, k2app is corrected for the presence of substrate (s) to give the second order rate constant k^12app, calculated as k^12app=k2app (1+[s]/Km).
Calpain was assayed fluorimetrically in 1 ml of 50 mM Tris/acetate buffer, pH 7.5, containing 5 mM CaCl2, 2.5 mM DTT(dithiothreitol), 0.1% Triton X-100 at 37° C., using 2.5×10^−4 M Suc-Leu-Tyr-aminomethylcoumarin (AMC) (Novabiochem, Switzerland) as substrate and 50nM (final concentration) of enzyme. The appearance of the 7-amino-4 methylcoumarin product was recorded continuously with a Perkin Elmer 650-10S spectrofluorimeter, a SPEX Fluorolog 1680, or SLM 8000C fluorescence spectrometer with excitation at 370 nm and emission at 460 nm.
Typically, 5 μL of the substrate solution (50 mM stock in DMSO) was added to 1 mL of buffer. Varying concentrations of the inhibitor solution (10 μL of a DMSO […] solution) were added, followed by 10 μL of calpain in the assay buffer. After allowing the reaction mixture to incubate for 2-5 min, during which time a steady baseline level of fluorescence was measured, calcium was added in a 10-μL volume to initiate hydrolysis of the fluorogenic substrate, and the resulting increase in fluorescence was monitored continuously. When inhibitors were tested at very low concentrations, the enzyme concentration was reduced to maintain a minimum of a 10-fold excess of inhibitor over enzyme.

[3] = Loss of body weight after MCA occlusion (Example 8); format: in vivo, rat
Procedure: The animal is able to move about and take water as needed. However, animals with severe stroke that are not able to maintain intake of water are supplemented with daily subcutaneous Lactated Ringers solution. Daily body weights are followed to assess nutritional status.
CP-1 dissolved in 1% DMSO and isotonic saline was given intravenously to Wistar rats (15 μl/min) at a concentration of 50 μM for four hours beginning at the end of three hours of MCA occlusion, in accordance with the protocol described hereinabove. Control animals underwent a similar protocol, but they had injected therein a 1% DMSO/Saline as the vehicle for four hours beginning at the end of a three hour MCA occlusion. All animals which survived 7 days were sacrificed and the infarct volume was measured 7 days after the MCA occlusion.
The % loss of body weight from CP-1 treated animals and the control group on Day 1 and Day 7 are tabulated hereinbelow.

[4] = biological target: T1, cathepsin B (Rattus norvegicus, UniProt P00787); assay: Cathepsin B activity in brain homogenates after 2 h MCA occlusion and infusion; format: in vivo
T1 construct: the brains were extracted and separated with right and left, cortical and subcortical regions and immediately frozen in liquid nitrogen; from tissue; host or cells: rat brain (cortical and subcortical regions), homogenate
T1 sequence (P00787 80-333): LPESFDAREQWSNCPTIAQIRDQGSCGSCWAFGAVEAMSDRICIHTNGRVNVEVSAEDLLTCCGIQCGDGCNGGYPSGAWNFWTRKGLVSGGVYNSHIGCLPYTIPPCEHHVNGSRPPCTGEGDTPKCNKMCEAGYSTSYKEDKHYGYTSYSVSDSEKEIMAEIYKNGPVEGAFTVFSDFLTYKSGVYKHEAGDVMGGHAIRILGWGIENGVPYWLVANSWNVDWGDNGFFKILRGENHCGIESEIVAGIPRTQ
Procedure: The protocol of Example 6 was followed except as follows: the rats under went two hours of MCA occlusion, they were administered either CP-1 (50 μM) or 1% DMSO/saline for four hours after reperfusion and the rats were sacrificed after 48 hours of survival.
At that time, the brains were extracted and separated with right and left, cortical and subcortical regions and immediately frozen in liquid nitrogen. The samples were homogenized with buffer, titrated, and then reacted with the substrate CBZ-Arg-Arg-AMC with the resultant fluorescence measured with a fluorophotometer. Activity is expressed in units of enzyme activity per mg of soluble brain protein (mean +SEM).

[5] = biological target: Cathepsin L (Homo sapiens, UniProt P07711); assay: Cathepsin L inactivation rate, fluorimetric progress curves; format: biochemical; details: second order inactivation rate constant corrected for substrate; substrate Z-Phe-Arg-AMC; pH 5.4, 30° C.
Sequence of Cathepsin L (P07711 114-333, species assumed): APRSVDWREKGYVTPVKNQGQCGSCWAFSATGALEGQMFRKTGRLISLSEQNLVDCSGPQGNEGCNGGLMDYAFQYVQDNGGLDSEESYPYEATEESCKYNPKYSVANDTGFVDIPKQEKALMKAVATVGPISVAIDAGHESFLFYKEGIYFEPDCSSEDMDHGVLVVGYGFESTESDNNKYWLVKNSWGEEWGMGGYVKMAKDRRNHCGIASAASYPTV
Procedure: as §1
Cathepsins B and L were preactivated with […] DTT in 50 mM sodium acetate buffer, pH 5.4, 1 mM EDTA for 2 h at 4° C. and assayed in the same buffer with 0.01% Brij [poly(oxyethylene) glycol dodecyl ether]. 5 μM (final concentration) CBZ-Phe-Arg-AMC was used as substrate for both for cathepsins B and L. The inhibitors (0.1-1 μM) and substrate were added to the reaction mixture to incubate for 5 min in a cuvette thermostated at 30° C. Then, approximately 0.4 nM and 0.1 nM final concentration of cathepsin B and cathepsin L, respectively, were used to initiate the reaction. […] The progress curves were analyzed over at least 3 half lives to calculate the rate constants of inactivation in accordance with the procedure described by Crawford, C. Mason, R. W., Wilkström, P., and Shaw, E. in an article entitled “The design of peptidyldiazomethane inhibitors to distinguish between the cysteine proteinases calpain II, cathepsin L and cathepsin B.”, Biochem. J. 1988, 253, 751-758, the contents of which are incorporated by reference. The rates of inactivation of various substrates are tabulated hereinbelow.

## [N-]=[N+]=CC(=O)C(COCc1ccccc1)NC(=O)C(Cc1ccccc1)NC(=O)OCc1ccccc1 (stereo not drawn) [CP-1, benzyloxycarbonyl-Phe-Ser(OBz)-CHN2] (Cbz-Phe-Ser(Bn)-CHN2; configuration not given here)
[1]; 50 μM i.v. for 4 h beginning at end of 3 h MCA occlusion, day 7, control 41.1 ± 2.4, P>0.05
  % Hemisphere Infact Volume (% ± SEM): 39.9 ± 4.1%
[1]; 50 μM, 3 hour MCA occlusion
  reducing infarct size: not effective
[2]
  Calpain k′2app: <10 M^−1S^−1
[3]; 50 μM i.v. 4 h, Example 8, control 19 ± 2.0
  % loss of body weight Day 1: 16 ± 1.4%
[3]; 50 μM i.v. 4 h, Example 8, control 32 ± 3.0
  % loss of body weight Day 7: 28 ± 3.4%
[3]; Day 1 and Day 7
  loss of mean body weight, treated versus control: no significant difference
[4]; 50 μM i.v. 4 h after 2 h MCA occlusion, 48 h survival, mean ± SEM, control 0.142 ± 0.02
  Cathepsin B activity, Left Cortex: 0.106 ± .01 units of enzyme activity per mg of soluble brain protein
[4]; 50 μM i.v. 4 h after 2 h MCA occlusion, 48 h survival, mean ± SEM, control 0.147 ± 0.02, p < 0.05
  Cathepsin B activity, Left Subcortex: 0.084 ± .01 units of enzyme activity per mg of soluble brain protein
[4]; 50 μM i.v. 4 h after 2 h MCA occlusion, 48 h survival, mean ± SEM, control 0.181 ± 0.04
  Cathepsin B activity, Right Cortex: 0.113 ± 0.01 units of enzyme activity per mg of soluble brain protein
[4]; 50 μM i.v. 4 h after 2 h MCA occlusion, 48 h survival, mean ± SEM, control 0.198 ± 0.03, p < 0.05
  Cathepsin B activity, Right Subcortex: 0.113 ± 0.02 units of enzyme activity per mg of soluble brain protein
[4]; 50 μM infusion after 2 h MCA occlusion
  cathepsin B activity in the subcortical regions versus vehicle: significantly lower
[5]
  Cathepsin L k′2app: 1,000,000 M^−1S^−1
